From BigSolDB 2.1

COC(=O)C(C)(C)N=NC(C)(C)C(=O)OC
Settings | solubility (mole fraction)
in THF, 253.85 K | 0.13
in THF, 258.55 K | 0.156
in THF, 260.95 K | 0.175
in THF, 262.85 K | 0.194
in THF, 265.15 K | 0.224
in THF, 268.85 K | 0.263
in THF, 273.65 K | 0.326
in THF, 275.95 K | 0.364
in THF, 278.45 K | 0.404
in THF, 280.65 K | 0.443
in THF, 283.15 K | 0.497
in THF, 285.65 K | 0.561
in THF, 288.05 K | 0.614
in THF, 290.55 K | 0.674
in THF, 293.15 K | 0.75
in acetone, 252.75 K | 0.0841
in acetone, 254.45 K | 0.0922
in acetone, 257.95 K | 0.112
in acetone, 261.25 K | 0.136
in acetone, 264.95 K | 0.171
in acetone, 267.65 K | 0.201
in acetone, 273.55 K | 0.276
in acetone, 275.85 K | 0.308
in acetone, 278.25 K | 0.352
in acetone, 280.55 K | 0.395
in acetone, 283.05 K | 0.454
in acetone, 285.65 K | 0.524
in acetone, 287.95 K | 0.591
in acetone, 290.45 K | 0.657
in acetone, 293.15 K | 0.734
in acetonitrile, 251.75 K | 0.0545
in acetonitrile, 255.15 K | 0.0705
in acetonitrile, 258.65 K | 0.091
in acetonitrile, 262.45 K | 0.113
in acetonitrile, 265.15 K | 0.137
in acetonitrile, 269.15 K | 0.18
in acetonitrile, 273.55 K | 0.238
in acetonitrile, 275.75 K | 0.278
in acetonitrile, 278.15 K | 0.323
in acetonitrile, 280.65 K | 0.369
in acetonitrile, 283.25 K | 0.432
in acetonitrile, 285.55 K | 0.494
in acetonitrile, 287.95 K | 0.557
in acetonitrile, 290.85 K | 0.638
in acetonitrile, 293.15 K | 0.702
in cyclohexane, 281.15 K | 0.147
in cyclohexane, 283.55 K | 0.233
in cyclohexane, 286.05 K | 0.362
in cyclohexane, 288.45 K | 0.471
in cyclohexane, 291.05 K | 0.601
in cyclohexane, 293.15 K | 0.677
in dichloromethane, 252.95 K | 0.268
in dichloromethane, 257.05 K | 0.281
in dichloromethane, 260.55 K | 0.296
in dichloromethane, 264.45 K | 0.321
in dichloromethane, 268.05 K | 0.352
in dichloromethane, 271.05 K | 0.385
in dichloromethane, 274.95 K | 0.413
in dichloromethane, 276.65 K | 0.451
in dichloromethane, 278.85 K | 0.493
in dichloromethane, 281.15 K | 0.513
in dichloromethane, 283.55 K | 0.552
in dichloromethane, 286.15 K | 0.592
in dichloromethane, 288.45 K | 0.627
in dichloromethane, 291.05 K | 0.67
in dichloromethane, 293.15 K | 0.73
in diethyl ether, 254.25 K | 0.0921
in diethyl ether, 257.95 K | 0.104
in diethyl ether, 260.55 K | 0.119
in diethyl ether, 262.45 K | 0.136
in diethyl ether, 266.75 K | 0.177
in diethyl ether, 268.15 K | 0.19
in diethyl ether, 273.55 K | 0.268
in diethyl ether, 275.65 K | 0.298
in diethyl ether, 278.05 K | 0.361
in diethyl ether, 280.55 K | 0.4
in diethyl ether, 282.85 K | 0.46
in diethyl ether, 285.55 K | 0.543
in diethyl ether, 287.95 K | 0.599
in diethyl ether, 290.45 K | 0.667
in diethyl ether, 293.15 K | 0.743
in ethanol, 252.85 K | 0.0094
in ethanol, 256.15 K | 0.011
in ethanol, 258.65 K | 0.0133
in ethanol, 261.85 K | 0.0165
in ethanol, 265.85 K | 0.0255
in ethanol, 268.55 K | 0.0344
in ethanol, 273.25 K | 0.0568
in ethanol, 275.85 K | 0.0726
in ethanol, 278.15 K | 0.094
in ethanol, 280.65 K | 0.123
in ethanol, 283.15 K | 0.17
in ethanol, 285.65 K | 0.238
in ethanol, 288.05 K | 0.329
in ethanol, 291.05 K | 0.481
in ethanol, 293.25 K | 0.625
in ethyl acetate, 252.15 K | 0.107
in ethyl acetate, 255.15 K | 0.114
in ethyl acetate, 257.85 K | 0.134
in ethyl acetate, 260.15 K | 0.146
in ethyl acetate, 263.65 K | 0.185
in ethyl acetate, 269.25 K | 0.246
in ethyl acetate, 273.65 K | 0.308
in ethyl acetate, 276.15 K | 0.342
in ethyl acetate, 278.45 K | 0.389
in ethyl acetate, 280.85 K | 0.433
in ethyl acetate, 283.25 K | 0.492
in ethyl acetate, 285.65 K | 0.558
in ethyl acetate, 288.05 K | 0.611
in ethyl acetate, 290.55 K | 0.668
in ethyl acetate, 293.25 K | 0.744
in isobutanol, 252.65 K | 0.0055
in isobutanol, 256.55 K | 0.0084
in isobutanol, 259.45 K | 0.0111
in isobutanol, 262.95 K | 0.013
in isobutanol, 265.65 K | 0.0155
in isobutanol, 269.35 K | 0.0205
in isobutanol, 273.55 K | 0.0388
in isobutanol, 275.95 K | 0.0587
in isobutanol, 278.15 K | 0.0813
in isobutanol, 280.65 K | 0.122
in isobutanol, 283.45 K | 0.194
in isobutanol, 285.75 K | 0.279
in isobutanol, 288.05 K | 0.355
in isobutanol, 290.95 K | 0.521
in isobutanol, 293.15 K | 0.643
in isopropanol, 252.05 K | 0.0065
in isopropanol, 256.25 K | 0.0081
in isopropanol, 258.95 K | 0.01
in isopropanol, 262.45 K | 0.0141
in isopropanol, 265.75 K | 0.0199
in isopropanol, 268.75 K | 0.0272
in isopropanol, 273.35 K | 0.0484
in isopropanol, 275.45 K | 0.0653
in isopropanol, 278.05 K | 0.0853
in isopropanol, 280.75 K | 0.137
in isopropanol, 283.15 K | 0.189
in isopropanol, 285.45 K | 0.26
in isopropanol, 287.95 K | 0.345
in isopropanol, 290.85 K | 0.5
in isopropanol, 293.15 K | 0.627
in methanol, 252.95 K | 0.0142
in methanol, 255.35 K | 0.0156
in methanol, 257.65 K | 0.0169
in methanol, 261.55 K | 0.0203
in methanol, 265.35 K | 0.0253
in methanol, 267.15 K | 0.0308
in methanol, 273.55 K | 0.0633
in methanol, 275.85 K | 0.0722
in methanol, 278.65 K | 0.0863
in methanol, 280.65 K | 0.122
in methanol, 283.05 K | 0.182
in methanol, 285.55 K | 0.248
in methanol, 288.15 K | 0.364
in methanol, 290.65 K | 0.482
in methanol, 293.15 K | 0.626
in n-butanol, 252.35 K | 0.0064
in n-butanol, 256.35 K | 0.0076
in n-butanol, 259.15 K | 0.0091
in n-butanol, 262.55 K | 0.0111
in n-butanol, 265.55 K | 0.0145
in n-butanol, 269.75 K | 0.0232
in n-butanol, 273.65 K | 0.0385
in n-butanol, 276.15 K | 0.0541
in n-butanol, 278.35 K | 0.0801
in n-butanol, 281.15 K | 0.123
in n-butanol, 283.55 K | 0.18
in n-butanol, 285.65 K | 0.251
in n-butanol, 288.15 K | 0.33
in n-butanol, 291.05 K | 0.486
in n-butanol, 293.15 K | 0.63
in n-propanol, 253.35 K | 0.0088
in n-propanol, 257.05 K | 0.0107
in n-propanol, 259.65 K | 0.0133
in n-propanol, 262.15 K | 0.0162
in n-propanol, 266.25 K | 0.0234
in n-propanol, 271.05 K | 0.0385
in n-propanol, 274.95 K | 0.0613
in n-propanol, 276.65 K | 0.0783
in n-propanol, 278.85 K | 0.098
in n-propanol, 281.15 K | 0.125
in n-propanol, 283.55 K | 0.173
in n-propanol, 286.15 K | 0.25
in n-propanol, 288.45 K | 0.352
in n-propanol, 291.05 K | 0.47
in n-propanol, 293.15 K | 0.611
in tetrachloromethane, 252.55 K | 0.109
in tetrachloromethane, 256.95 K | 0.125
in tetrachloromethane, 260.35 K | 0.144
in tetrachloromethane, 264.05 K | 0.182
in tetrachloromethane, 266.85 K | 0.214
in tetrachloromethane, 269.55 K | 0.242
in tetrachloromethane, 273.65 K | 0.314
in tetrachloromethane, 276.15 K | 0.349
in tetrachloromethane, 278.45 K | 0.393
in tetrachloromethane, 280.75 K | 0.445
in tetrachloromethane, 283.35 K | 0.506
in tetrachloromethane, 285.75 K | 0.564
in tetrachloromethane, 288.15 K | 0.632
in tetrachloromethane, 290.55 K | 0.696
in toluene, 253.45 K | 0.104
in toluene, 256.35 K | 0.119
in toluene, 259.55 K | 0.141
in toluene, 262.55 K | 0.161
in toluene, 264.85 K | 0.184
in toluene, 269.55 K | 0.237
in toluene, 273.65 K | 0.286
in toluene, 276.05 K | 0.326
in toluene, 278.25 K | 0.367
in toluene, 280.65 K | 0.41
in toluene, 283.15 K | 0.47
in toluene, 285.55 K | 0.545
in toluene, 288.05 K | 0.597
in toluene, 290.95 K | 0.67
in toluene, 293.15 K | 0.731
